{"source": "patent US5609875A", "about": "“Skin whitening composition” (Fischer Pharmaceuticals Ltd., priority 1994, dated 1997)", "tested_on": "tyrosinase", "assay": "In vitro tyrosinase inhibitory activity, colorimeter comparison at 475 nm", "type": "biochemical", "text": "Test in vitro on the effect of glycolic acid and glycyrrhiza dry extract on tyrosinase inhibitory activity has been carried out based on the Methodology of Maruzene Pharmaceuticals. The anti-tyrosinase activity was investigated by colorimeter comparison at 475 nm and calculated as percentage of the inhibitory activities. (Attached are the results)."}
{"smiles": "O=C(O)CO", "note": "[Glycolic acid]", "values": [{"measurement": "% Tyrosinase Inhibition Test 1", "setting": "Glycolic acid 0.42 mg/5 ml", "result": 4.86, "unit": "%"}, {"measurement": "% Tyrosinase Inhibition Test 2", "setting": "Glycolic acid 0.42 mg/5 ml", "result": 9.12, "unit": "%"}, {"measurement": "% Tyrosinase Inhibition Test 1", "setting": "Glycolic acid 0.805 mg/5 ml", "result": 5.64, "unit": "%"}, {"measurement": "% Tyrosinase Inhibition Test 2", "setting": "Glycolic acid 0.805 mg/5 ml", "result": 16.11, "unit": "%"}, {"measurement": "% Tyrosinase Inhibition Test 1", "setting": "Glycolic acid 1.61 mg/5 ml", "result": 7.60, "unit": "%"}, {"measurement": "% Tyrosinase Inhibition Test 2", "setting": "Glycolic acid 1.61 mg/5 ml", "result": 21.32, "unit": "%"}, {"measurement": "% Tyrosinase Inhibition Test 1", "setting": "Glycolic acid 7.21 mg/5 ml", "result": 10.74, "unit": "%"}, {"measurement": "% Tyrosinase Inhibition Test 2", "setting": "Glycolic acid 7.21 mg/5 ml", "result": 27.81, "unit": "%"}]}
